Laboratory results published in US5500410A, “Substituted alkylamide derivatives of teicoplanin” (Gruppo Lepetit S.p.A., priority 1989, dated 1996).

Tests used:
Strep. pyogenes C 203 = test: In vivo test in mice septicemically infected with Strep. pyogenes C 203; details: Strep. pyogenes C 203 septicemia
Excerpt: The ED50 values (mg/kg) of representative compounds of the invention in in vivo tests in mice septicemically infected with Strep. pyogenes. C 203, obtained according to the procedure described by V. Arioli et al. (Journal of Antibiotics 29, 511; 1976) are given in table III.

[1] = test system: Staphylococcus epidermidis ATCC 12228; test: In vitro MIC, two-fold dilution in microtiter; format: cell-based; details: 18-24 h at 37° C., inoculum about 10^4 CFU/ml
Method: (§1) Broth cultures are diluted enough so that the final inecuium is about 10^4 colony forming units/ml (CFU/ml).

[2] = test system: Proteus vulgaris X19H ATCC 881; test: In vitro MIC, two-fold dilution in microtiter; format: cell-based; details: 18-24 h at 37° C., inoculum about 10^4 CFU/ml
Method: as §1

[3] = test system: Streptococcus pyogenes C 203; test: In vitro MIC, two-fold dilution in microtiter; format: cell-based; details: 18-24 h at 37° C., inoculum about 10^4 CFU/ml
Method: as §1

[4] = test system: Streptococcus pneumoniae UC 41; test: In vitro MIC, two-fold dilution in microtiter; format: cell-based; details: 18-24 h at 37° C., inoculum about 10^4 CFU/ml
Method: as §1

[5] = test system: Escherichia coli SKF 12140; test: In vitro MIC, two-fold dilution in microtiter; format: cell-based; details: 18-24 h at 37° C., inoculum about 10^4 CFU/ml
Method: as §1

[6] = test system: Pseudomonas aeruginosa ATCC 10145; test: In vitro MIC, two-fold dilution in microtiter; format: cell-based; details: 18-24 h at 37° C., inoculum about 10^4 CFU/ml
Method: as §1

[7] = test system: Streptococcus faecalis ATCC 7080; test: In vitro MIC, two-fold dilution in microtiter; format: cell-based; details: 18-24 h at 37° C., inoculum about 10^4 CFU/ml
Method: as §1

[8] = test system: Staphylococcus aureus TOUR; test: In vitro MIC, two-fold dilution in microtiter; format: cell-based; details: 18-24 h at 37° C., inoculum about 10^4 CFU/ml
Method: as §1

[9] = test system: Staphylococcus haemolyticus L 602; test: In vitro MIC, two-fold dilution in microtiter; format: cell-based; details: 18-24 h at 37° C., inoculum about 10^4 CFU/ml
Method: as §1

SMILES | MIC Staphylococcus epidermidis ATCC 12228 [1] | MIC Proteus vulgaris X19H ATCC 881 [2] | MIC Streptococcus pyogenes C 203 [3] | MIC Streptococcus pneumoniae UC 41 [4] | MIC Escherichia coli SKF 12140 [5] | MIC Pseudomonas aeruginosa ATCC 10145 [6] | MIC Streptococcus faecalis ATCC 7080 [7] | MIC Staphylococcus aureus TOUR [8] | ED50 p.o. (Strep. pyogenes C 203) | ED50 s.c. (Strep. pyogenes C 203) | MIC Staphylococcus haemolyticus L 602 [9]
CC(=O)N[C@H]1[C@H](OC2c3ccc(c(Cl)c3)Oc3cc4cc(c3O[C@@H]3O[C@H](CO)[C@@H](O)[C@H](O)[C@H]3NC(=O)CCCCCCC(C)C)Oc3ccc(cc3Cl)CC3NC(=O)C(N)c5ccc(O)c(c5)Oc5cc(O)cc(c5)C(NC3=O)C(=O)NC4C(=O)NC3C(=O)NC2C(=O)NC(C(=O)NCCNCCN)c2cc(O)cc(O[C@H]4O[C@H](CO)[C@@H](O)[C@H](O)[C@@H]4O)c2-c2cc3ccc2O)O[C@H](CO)[C@@H](O)[C@@H]1O (stereo partly shown) [Compound 2] |  |  |  |  |  |  |  |  | about 60 mg/kg | 0.09 mg/kg | 
CC(=O)NC1C(OC2c3ccc(c(Cl)c3)Oc3cc4cc(c3OC3OC(CO)C(O)C(O)C3NC(=O)CCCCCCC(C)C)Oc3ccc(cc3Cl)CC3NC(=O)C(N)c5ccc(O)c(c5)Oc5cc(O)cc(c5)C(NC3=O)C(=O)NC4C(=O)NC3C(=O)NC2C(=O)NC(C(=O)NCCCNCCCNCCCN)c2cc(O)cc(OC4OC(CO)C(O)C(O)C4O)c2-c2cc3ccc2O)OC(CO)C(O)C1O (stereo not shown) [Compound 9] | 0.06 microgram/ml | > 128 microgram/ml | 0.06 microgram/ml | 0.12 microgram/ml | > 128 microgram/ml | 64 microgram/ml | 0.12 microgram/ml | 0.12 microgram/ml | about 80 mg/kg | 0.06 mg/kg | 0.12 microgram/ml
NCCNCCCNCCNC(=O)C1NC(=O)C2NC(=O)C(NC(=O)C3NC(=O)C4NC(=O)C(Cc5ccc(c(Cl)c5)Oc5cc3cc(c5O)Oc3ccc(cc3Cl)C2O)NC(=O)C(N)c2ccc(O)c(c2)Oc2cc(O)cc4c2)c2ccc(O)c(c2)-c2c(O)cc(O)cc21 (stereo not shown) [Compound 24] | 0.06 microgram/ml | 128 microgram/ml | 0.06 microgram/ml | 0.12 microgram/ml | 4 microgram/ml | 64 microgram/ml | 0.12 microgram/ml | 0.06 microgram/ml |  |  | 0.06 microgram/ml

More lines, main results first:

MIC Staphylococcus epidermidis ATCC 12228 [1] | MIC Proteus vulgaris X19H ATCC 881 [2] | MIC Streptococcus pyogenes C 203 [3] | MIC Streptococcus pneumoniae UC 41 [4] | MIC Escherichia coli SKF 12140 [5] | MIC Pseudomonas aeruginosa ATCC 10145 [6] | MIC Streptococcus faecalis ATCC 7080 [7] | MIC Staphylococcus aureus TOUR [8] | SMILES | ED50 p.o. (Strep. pyogenes C 203) | ED50 s.c. (Strep. pyogenes C 203) | MIC Staphylococcus haemolyticus L 602 [9]
0.06 microgram/ml | 64 microgram/ml | 0.12 microgram/ml | 0.12 microgram/ml | 8 microgram/ml | 64 microgram/ml | 0.12 microgram/ml | 0.06 microgram/ml | NCCNCCNC(=O)C1NC(=O)C2NC(=O)C(NC(=O)C3NC(=O)C4NC(=O)C(Cc5ccc(c(Cl)c5)Oc5cc3cc(c5O)Oc3ccc(cc3Cl)C2O)NC(=O)C(N)c2ccc(O)c(c2)Oc2cc(O)cc4c2)c2ccc(O)c(c2)-c2c(O)cc(O)cc21 (stereo not shown) [Compound 21] |  |  | 0.12 microgram/ml
0.06 microgram/ml | 128 microgram/ml | 0.06 microgram/ml | 0.12 microgram/ml | 4 microgram/ml | 16 microgram/ml | 0.12 microgram/ml | 0.06 microgram/ml | NCCCN1CCN(CCCNC(=O)C2NC(=O)C3NC(=O)C(NC(=O)C4NC(=O)C5NC(=O)C(Cc6ccc(c(Cl)c6)Oc6cc4cc(c6O)Oc4ccc(cc4Cl)C3O)NC(=O)C(N)c3ccc(O)c(c3)Oc3cc(O)cc5c3)c3ccc(O)c(c3)-c3c(O)cc(O)cc32)CC1 (stereo not shown) [Compound 30] |  |  | 0.12 microgram/ml
0.06 microgram/ml | > 128 microgram/ml | 0.12 microgram/ml | 0.5 microgram/ml | 32 microgram/ml | 128 microgram/ml | 0.5 microgram/ml | 0.25 microgram/ml | CC(=O)N[C@H]1[C@H](OC2c3ccc(c(Cl)c3)Oc3cc4cc(c3O)Oc3ccc(cc3Cl)CC3NC(=O)C(N)c5ccc(O)c(c5)Oc5cc(O)cc(c5)C(NC3=O)C(=O)NC4C(=O)NC3C(=O)NC2C(=O)NC(C(=O)NCCCNCCCCNCCCN)c2cc(O)cc(O[C@H]4O[C@H](CO)[C@@H](O)[C@H](O)[C@@H]4O)c2-c2cc3ccc2O)O[C@H](CO)[C@@H](O)[C@@H]1O (stereo partly shown) [Compound 39] |  |  | 0.12 microgram/ml
